Organism: Rattus norvegicus
Assay: DrugMatrix - Regimen: Daily Repeat
Format: toxicity, organism-based, Sprague-Dawley
Design: regimen Daily Repeat, gender Male, age 6-8 weeks
Conditions: in vivo, po, route oral GAVAGE, vehicle .5 % CMC; for ABSOLUTE BASOPHIL / ABSOLUTE EOSINOPHIL / ABSOLUTE LYMPHOCYTE / ABSOLUTE MONOCYTE / ABSOLUTE SEGMENTED NEUTROPHIL / BASOPHIL / EOSINOPHIL / ERYTHROCYTE COUNT / HEMATOCRIT / HEMOGLOBIN / LEUKOCYTE COUNT / LYMPHOCYTE / MEAN CORPUSCULAR HEMOGLOBIN / MEAN CORPUSCULAR HEMOGLOBIN CONCENTRATION / MEAN CORPUSCULAR VOLUME / MONOCYTE / NEUTROPHIL / NUCLEATED RED BLOOD CELLS / PLATELET COUNT: tissue Blood; for ALANINE AMINOTRANSFERASE / ALBUMIN / ALKALINE PHOSPHATASE / ASPARTATE AMINOTRANSFERASE / BLOOD UREA NITROGEN / CARBON DIOXIDE / CHLORIDE / CHOLESTEROL / CREATINE PHOSPHOKINASE / CREATININE / GLUCOSE / LACTATE DEHYDROGENASE / LIPASE / PHOSPHORUS / POTASSIUM / SODIUM / TOTAL BILIRUBIN / TOTAL PROTEIN / URIC ACID: tissue Plasma
[1] = 0 mg/kg, 72 h, dose level Control, time 3 day
[2] = 0 mg/kg, 120 h, dose level Control, time 5 day
[3] = 47 mg/kg, 72 h, dose level High, time 3 day

With `CN(C)C(=O)C(CCN1CCC(O)(c2ccc(Cl)cc2)CC1)(c1ccccc1)c1ccccc1` [LOPERAMIDE] the “ABSOLUTE BASOPHIL” value [1] was 0 CELLS/uL, the “ABSOLUTE EOSINOPHIL” value [1] was 0 CELLS/uL and the “ABSOLUTE LYMPHOCYTE” value [1] was 12191.17 CELLS/uL. The “ABSOLUTE MONOCYTE” value [1] was 183.17 CELLS/uL, the “ABSOLUTE SEGMENTED NEUTROPHIL” value [1] was 1192.33 CELLS/uL and the BASOPHIL [1] was 0%. For the same compound, the EOSINOPHIL [1] was 0%, the “ERYTHROCYTE COUNT” value [1] was 5.51 x10E6/uL and the HEMATOCRIT [1] was 35.45%. The HEMOGLOBIN [1] was 13.82 G/DL, the “LEUKOCYTE COUNT” value [1] was 13.57 x10E3/uL and the LYMPHOCYTE [1] was 89.83%. For the same compound, the “MEAN CORPUSCULAR HEMOGLOBIN” value [1] was 25.1 pg, the “MEAN CORPUSCULAR HEMOGLOBIN CONCENTRATION” value [1] was 38.98 G/DL and the “MEAN CORPUSCULAR VOLUME” value [1] was 64.42 fL. For the same compound, the MONOCYTE [1] was 1.33%, the NEUTROPHIL [1] was 8.83% and the “NUCLEATED RED BLOOD CELLS” value [1] was 0 /100WBC. The “PLATELET COUNT” value [1] was 1118.17 x10E3/uL, the “ALANINE AMINOTRANSFERASE” value [1] was 55 u/L and the ALBUMIN [1] was 4.15 G/DL. For the same compound, the “ALKALINE PHOSPHATASE” value [1] was 449.5 u/L, the “ASPARTATE AMINOTRANSFERASE” value [1] was 112.83 u/L and the “BLOOD UREA NITROGEN” value [1] was 17.33 mg/dL. For the same compound, the “CARBON DIOXIDE” value [1] was 29.5 mmol/L, the CHLORIDE [1] was 101 MEQ/L and the CHOLESTEROL [1] was 70 mg/dL. The “CREATINE PHOSPHOKINASE” value [1] was 1325.83 u/L, the CREATININE [1] was 0.18 mg/dL and the GLUCOSE [1] was 171.5 mg/dL. The “LACTATE DEHYDROGENASE” value [1] was 386 u/L, the LIPASE [1] was 10 u/L and the PHOSPHORUS [1] was 11.57 mg/dL. The POTASSIUM [1] was 6.21 MEQ/L, the SODIUM [1] was 141.65 MEQ/L and the “TOTAL BILIRUBIN” value [1] was 0.15 mg/dL. The “TOTAL PROTEIN” value [1] was 5.75 G/DL, the “URIC ACID” value [1] was 1.28 mg/dL and the “ABSOLUTE BASOPHIL” value [2] was 0 CELLS/uL. For the same compound, the “ABSOLUTE EOSINOPHIL” value [2] was 138.17 CELLS/uL, the “ABSOLUTE LYMPHOCYTE” value [2] was 13283.17 CELLS/uL and the “ABSOLUTE MONOCYTE” value [2] was 303.83 CELLS/uL. For the same compound, the “ABSOLUTE SEGMENTED NEUTROPHIL” value [2] was 1308.17 CELLS/uL, the BASOPHIL [2] was 0% and the EOSINOPHIL [2] was 1%. The “ERYTHROCYTE COUNT” value [2] was 5.32 x10E6/uL, the HEMATOCRIT [2] was 33.8% and the HEMOGLOBIN [2] was 13.63 G/DL. For the same compound, the “LEUKOCYTE COUNT” value [2] was 15.03 x10E3/uL, the LYMPHOCYTE [2] was 88.33% and the “MEAN CORPUSCULAR HEMOGLOBIN” value [2] was 25.68 pg. The “MEAN CORPUSCULAR HEMOGLOBIN CONCENTRATION” value [2] was 40.35 G/DL, the “MEAN CORPUSCULAR VOLUME” value [2] was 63.67 fL and the MONOCYTE [2] was 1.83%. For the same compound, the NEUTROPHIL [2] was 8.83%, the “NUCLEATED RED BLOOD CELLS” value [2] was 0 /100WBC and the “PLATELET COUNT” value [2] was 1097.5 x10E3/uL. For the same compound, the “ALANINE AMINOTRANSFERASE” value [2] was 54.5 u/L, the ALBUMIN [2] was 4.27 G/DL and the “ALKALINE PHOSPHATASE” value [2] was 337 u/L. The “ASPARTATE AMINOTRANSFERASE” value [2] was 94.67 u/L, the “BLOOD UREA NITROGEN” value [2] was 17 mg/dL and the “CARBON DIOXIDE” value [2] was 28.33 mmol/L. For the same compound, the CHLORIDE [2] was 101.5 MEQ/L, the CHOLESTEROL [2] was 71.33 mg/dL and the “CREATINE PHOSPHOKINASE” value [2] was 628.17 u/L. For the same compound, the CREATININE [2] was 0.19 mg/dL, the GLUCOSE [2] was 177.83 mg/dL and the “LACTATE DEHYDROGENASE” value [2] was 500.5 u/L. For the same compound, the LIPASE [2] was 9.5 u/L, the PHOSPHORUS [2] was 12.3 mg/dL and the POTASSIUM [2] was 5.63 MEQ/L. The SODIUM [2] was 143.03 MEQ/L, the “TOTAL BILIRUBIN” value [2] was 0.2 mg/dL and the “TOTAL PROTEIN” value [2] was 6.02 G/DL. The “URIC ACID” value [2] was 1.5 mg/dL, the “ABSOLUTE BASOPHIL” value [3] was 0 CELLS/uL and the “ABSOLUTE EOSINOPHIL” value [3] was 41.67 CELLS/uL. The “ABSOLUTE LYMPHOCYTE” value [3] was 10763.67 CELLS/uL, the “ABSOLUTE MONOCYTE” value [3] was 116.33 CELLS/uL and the “ABSOLUTE SEGMENTED NEUTROPHIL” value [3] was 1178.33 CELLS/uL. For the same compound, the BASOPHIL [3] was 0%, the EOSINOPHIL [3] was 0.33% and the “ERYTHROCYTE COUNT” value [3] was 5.35 x10E6/uL. The HEMATOCRIT [3] was 35.5%, the HEMOGLOBIN [3] was 13.67 G/DL and the “LEUKOCYTE COUNT” value [3] was 12.1 x10E3/uL. The LYMPHOCYTE [3] was 89%, the “MEAN CORPUSCULAR HEMOGLOBIN” value [3] was 25.6 pg and the “MEAN CORPUSCULAR HEMOGLOBIN CONCENTRATION” value [3] was 38.47 G/DL. The “MEAN CORPUSCULAR VOLUME” value [3] was 66.47 fL, the MONOCYTE [3] was 1% and the NEUTROPHIL [3] was 9.67%. For the same compound, the “NUCLEATED RED BLOOD CELLS” value [3] was 0 /100WBC, the “PLATELET COUNT” value [3] was 1353 x10E3/uL and the “ALANINE AMINOTRANSFERASE” value [3] was 75 u/L. The ALBUMIN [3] was 3.9 G/DL, the “ALKALINE PHOSPHATASE” value [3] was 286.67 u/L and the “ASPARTATE AMINOTRANSFERASE” value [3] was 88 u/L. For the same compound, the “BLOOD UREA NITROGEN” value [3] was 15 mg/dL, the “CARBON DIOXIDE” value [3] was 30.67 mmol/L and the CHLORIDE [3] was 102 MEQ/L. For the same compound, the CHOLESTEROL [3] was 68 mg/dL, the “CREATINE PHOSPHOKINASE” value [3] was 336.67 u/L and the CREATININE [3] was 0.15 mg/dL. The GLUCOSE [3] was 144.33 mg/dL, the “LACTATE DEHYDROGENASE” value [3] was 285.33 u/L and the LIPASE [3] was 9.33 u/L. For the same compound, the PHOSPHORUS [3] was 11.33 mg/dL, the POTASSIUM [3] was 6.22 MEQ/L and the SODIUM [3] was 144.77 MEQ/L. The “TOTAL BILIRUBIN” value [3] was 0.1 mg/dL, the “TOTAL PROTEIN” value [3] was 5.5 G/DL and the “URIC ACID” value [3] was 1.43 mg/dL.

— ChEMBL document CHEMBL3885881, “DrugMatrix”
